One molecule from patent US9901649B2, “Block copolymers for therapeutic drug delivery” (INTERNATIONAL BUSINESS MACHINES CORPORATION, priority 2016, dated 2018) can be followed below.

The structures appear in SMILES notation. In brackets after ≈: the same amount, converted by molar mass.

The test system of data set [1] is NCCFH-01 cells. The experiment in a line: In vitro cytotoxicity, MTT assay. It is filed as cell-based. As to conditions: 48 hours, 37° C., pH 7.4, read-out: half maximal inhibitory concentration IC50. The procedure: BT-474 human breast cancer cell line was purchased from ATCC (Manassas, Va., U.S.A). Hereditary leiomyomastosis and renal cancer cells (NCCFH-01 cell line) was obtained from Dr. Min-Han Tan, Institute of Bioengineering and Nanotechnology, Singapore. Cells were cultured in RPMI-1640 medium containing 25 mM Hepes and L-Glutamine (Lonza, Singapore) supplemented with 10% fetal bovine serum (FBS), 100 U/mL penicillin and 100 μg/mL streptomycin at 37° C. in 5% CO2. 3-[4,5-Dimenthylthiazol-2-yl]-2,5-diphenyl tetrazolium bromide (MTT) was dissolved in phosphate-buffered saline (PBS, pH 7.4) with a concentration of 5 mg/mL, and the solution was filtered with a 0.22 micrometer filter to remove blue formazan crystals prior to usage.
Cytotoxicity of free DOX, DOX-loaded particles, and blank particles was determined through MTT assay. BT-474 cells and NCCFH-01 cells were seeded into 96-well plates at a density of 5×10^3 cells per well and incubated overnight in 100 microliters of RPMI-1640 containing 25 mM Hepes and L-Glutamine, supplemented with 10% FBS and 5% penicillin-streptomycin at 37 C, 5% CO2. […] After gentle agitation for 15 minutes, the absorbance of formazan crystals was taken to be that at 550 nm subtracted by that at 690 nm (TECAN, Switzerland). Cell viability was expressed as a percentage of absorbance of the control cells.
Background: Tetrazolium assays rely on reduction of a dye to a coloured formazan, in cell work by metabolically active cells.

Data set [2] in a line: Mouse body weight change during the in vivo treatments. Also noted: species or system female BALB/c nude mice. As to conditions: nude mice bearing BT-474 xenografts; DOX 5 mg/kg, tail vein injection at day 0, 3, 6 and 10. The procedure: Female BALB/c nude mice were provided by Singapore Biological Research Center (BRC) at 6 weeks of age (20-22 g). All animal studies were adhered to protocols approved by the Singapore BRC's Institutional Animal Care and Use Committee. BT-474 cells (1×10^7) were suspended in 200 microliters of a solution containing Matrigel and PBS (volume ratio: 50/50) and subcutaneously injected into the right flank of female BALB/c nude mice. Estradiol pellet (0.72 mg/pellet, 60 days release) was subcutaneously administered into mice one day before the inoculation. Once the tumor volume reached about 200 mm^3 on the 14th day (recorded as day 0), the mice were randomly divided into 5 groups (7-8 animals per group): group 1 for 0.9% saline as control, group 2 for blank particles, group 3 for free DOX, group 4 for DOX-loaded particles LM-1, and group 5 for DOX-loaded particles LM-2. The dose of DOX in all formulations was 5 mg/kg. The formulations were given to mice via tail vein injection at day 0, 3, 6 and 10. At the predetermined time points, mice were weighed and tumor size was measured with a Vernier caliper. The tumor volume was calculated using the following formula: Tumor volume=length×width^2/2.

As to `COc1cccc2c1C(=O)c1c(O)c3c(c(O)c1C2=O)C[C@@](O)(C(=O)CO)C[C@@H]3O[C@H]1C[C@H](N)[C@H](O)[C@H](C)O1` [DOX, Doxorubicin], in data set [1], the IC50 is 12.7 µg/mL (≈ 23.4 µM). Further, the body weight loss in data set [2] was determined as 20%.
